What was measured:
[1] = tested on: mice; test: Maximum tolerated dose (MTD) in mice of formulated complex solution; type: in vivo; conditions: complex given as the formulated solution
[2] = Osmolality of the formulated complex solution; type: physicochemical
[3] = Osmolality determined in water, compared to the EGTA complex; type: physicochemical; conditions: concentration 41 mM

(NMG)4[(W3SO3)2(HO-PDTA)3]
maximum tolerated dose (MTD) [1]: ~2.17 mmoles complex/kg | osmolality ([2]; 153mM solution, pH 6.98): 499 mmol/kg

Na4[(W3SO3)2(EGTA)3] [Na4[(W3SO3)2(EGTA)3].10H2O]
maximum tolerated dose (MTD) [1]: ~7.75 mmoles complex/kg | osmolality ([2]; 168 mM solution, pH 6.65): 685 mmol/kg | osmolality [3]: 199 mmol/kg

Na4[(W3SO3)2(BDTA)3] [Na4[(W3SO3)2(BDTA)3].12H2O]
maximum tolerated dose (MTD) [1]: ~ 2.55 mmoles complex/kg | osmolality ([2]; 120mM solution, pH 7.4): 459 mmol/kg

Na4[(W3S3O)2(EGTA)3] [Na4[(W3S3O)2(EGTA)3] .6H2O]
maximum tolerated dose (MTD) [1]: ~3.95 mmoles complex/kg | osmolality ([2]; 121 mM solution, pH 6.95): 517 mmol/kg

Na4[(W3SO3)2(OBETA)3] [Na4[(W3SO3)2(OBETA)3].10H2O]
maximum tolerated dose (MTD) [1]: -4.35 mmoles complex/kg | osmolality ([2]; 107 mM solution, pH 7.03): 498 mmol/kg

Na4[(W3SO3)2(PDTA)3] [Na4[(W3SO3)2(PDTA)3] 11H2O]
maximum tolerated dose (MTD) [1]: > 6.5 mmoles complex/kg | osmolality ([2]; 79mM solution, pH 6.6): 311 mmol/kg

Na4[(W3SO3)2(MeO-PDTA)3] [Na4[(W3SO3)2(MeO-PDTA)3] . 7H2O]
osmolality ([2]; 140mM solution, pH 6.5): 563 mmol/kg
